Tests used:
Type in all cases: in vivo
total cholesterol = experiment: Human clinical trials: total cholesterol levels in participant blood samples; conditions: majority of clinical trial participants; with or without amino acids; absence of additional measures
Protocol: (§1) Two challenges were being considered at the beginning of the human clinical trial. The first challenge was to document the stand-alone efficacy of HTA-8 as a new growth hormone releasing factor. The second was to determine if HTA-8 could be combined with other common releasing factors to create an even better result. As such, two separate trials were conducted. • Trial #1/HTA-8: Ten individuals ranging in age from 30 to 69 years were given 30 ng of HTA-8 in the form of an aerosolized oral spray before bed, over a 30-32 day period. • Trial #2/HTA-8+: Fifteen individuals ranging in age from 38 to 70 years of age were given an effervescent tablet to take once daily over a 25-36 day period that contained 20 ng of HTA-8 in combination with 1200 mg each of the amino acids lysine and arginine. (Previous published experimentation has shown that the combination of lysine and arginine in the doses used in Trial #2 is an effective GH releasing factor.)
The principal hormone measured in order to establish whether there is an increase in growth hormone secretion is IGF-1. IGF-1 concentrations and total cholesterol levels were determined by collecting participant blood samples at the beginning of the studies and at their conclusion. […]

[1] = Human clinical trials: radial bone density by ultrasonographic technique; conditions: subjects taking HTA-8 alone (Trial #1)
Protocol: as §1
An increase in bone density decreases the chance of fracture and […]. Bone density is a particularly important issue as the body ages, regardless of sex. During the Clinical Trials, radial bone density was measured using an ultrasonographic technique.

IGF-1 = experiment: Human clinical trials: IGF-1 concentrations in participant blood samples
Protocol: as §1
The principal hormone measured in order to establish whether there is an increase in growth hormone secretion is IGF-1. IGF-1 concentrations and total cholesterol levels were determined by collecting participant blood samples at the beginning of the studies and at their conclusion.

[2] = Human clinical trials: ultrasound-based body composition analysis and body weight; conditions: all study participants in both clinical trials
Protocol: as §1

H-D-Ala-D-2-Nal-Trp-H is-Trp-D-Phe-Lys-N H2 [HTA-8]
change in total cholesterol levels over the study period (total cholesterol): clinically significant decrease
average increase in bone density [1]: 6.8%
maximum IGF-1 level measured in all clinical trial participants after the study period (IGF-1; Trial #1: 30 ng HTA-8 oral spray before bed, 30-32 days, person): 410 ng/mL
GHRF activity (IGF-1 response) (IGF-1; Trial #1: HTA-8 alone, oral spray): bona fide, stand-alone GHRF
IGF-1 level on average, after (increased to) (IGF-1; Trial #2: effervescent tablet once daily, 20 ng HTA-8 with 1200 mg each lysine and arginine, after 25-36 day period): 202 ng/mL
IGF-1 level on average, before (increased from) (IGF-1; Trial #2: effervescent tablet once daily, 20 ng HTA-8 with 1200 mg each lysine and arginine, beginning of study): 170 ng/mL
change in adipose tissue mass [2]: decrease in adipose tissue mass
change in lean muscle mass [2]: increase in lean muscle mass
